Experiments:
ERβ [1] = molecular target: T1, ERβ (Homo sapiens, UniProt Q92731); assay: Repression of TNF-α activation of TNF-RE tkLuc in U2OS cells with ERβ; type: cell-based; design: expressed in transfected cells
ERβ [2] = molecular target: T1, ERβ; conditions: in the presence of ERβ
TNF-RE tkLuc = assay: Effect of antiestrogens on TNF-RE tkLuc (Example 2); type: cell-based, human; conditions: for effect on the repression induced by E2: TNF-RE tkLuc; for activation of TNF-RE tkLuc: antiestrogens
ERβ [3] = molecular target: T1, ERβ; assay: ERE-tk-Luc luciferase activation in U2OS cells cotransfected with human ERβ; type: cell-based; design: expressed in transfected cells; host or cells: U2OS (human osteosarcoma); conditions: competition with the Astragalus extract
breast cancer = conditions: cited from earlier work

T1 sequence (Q92731 whole entry): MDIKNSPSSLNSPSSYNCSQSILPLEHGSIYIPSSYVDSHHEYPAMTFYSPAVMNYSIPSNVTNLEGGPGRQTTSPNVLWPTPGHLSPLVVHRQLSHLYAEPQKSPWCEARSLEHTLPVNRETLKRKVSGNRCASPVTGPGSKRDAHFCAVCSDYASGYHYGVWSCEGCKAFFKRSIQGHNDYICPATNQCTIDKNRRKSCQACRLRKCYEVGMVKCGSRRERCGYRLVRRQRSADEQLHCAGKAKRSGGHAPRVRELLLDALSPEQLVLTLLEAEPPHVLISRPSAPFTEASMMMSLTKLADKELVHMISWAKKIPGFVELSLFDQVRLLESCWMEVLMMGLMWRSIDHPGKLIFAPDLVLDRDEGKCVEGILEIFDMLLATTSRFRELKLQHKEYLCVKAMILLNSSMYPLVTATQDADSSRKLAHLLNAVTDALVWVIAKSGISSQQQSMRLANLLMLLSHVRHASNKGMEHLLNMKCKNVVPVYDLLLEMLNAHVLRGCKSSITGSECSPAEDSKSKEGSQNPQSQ

| Compound | repression of TNF-α activation of TNF-RE (ERβ [1]) [%] | repression of TNF-α activation of TNF-RE tkLuc (ERβ [2]) | effect on the repression induced by E2 (TNF-RE tkLuc) | activation of TNF-RE tkLuc (TNF-RE tkLuc) [fold] | effect on the extract's stimulatory effect on the ERE with ERβ (FIG. 6) (ERβ [3]) | reduction of the risk of primary invasive breast cancer (breast cancer; BCPT, women at high risk for breast cancer) [%] | reduction of the risk of recurrences (breast cancer; five years of therapy, women with estrogen receptor-positive breast cancer) [%] | reduction of mortality from breast cancer (breast cancer; five years of therapy) [%] |
| --- | --- | --- | --- | --- | --- | --- | --- | --- |
| C[C@]12CC[C@@H]3c4ccc(O)cc4CC[C@H]3[C@@H]1CC[C@@H]2O [E2, estradiol] | 100 | 60-80% | – | – | – | – | – | – |
| C[C@]12CC[C@@H]3c4ccc(O)cc4C[C@@H](CCCCCCCCC[S+]([O-])CCCC(F)(F)C(F)(F)F)[C@H]3[C@@H]1CC[C@@H]2O (stereo partly drawn) [ICI 182, 780] | – | – | abolished | 2 | – | – | – | – |
| O=C(c1ccc(OCCN2CCCCC2)cc1)c1c(-c2ccc(O)cc2)sc2cc(O)ccc12 [raloxifene] | – | – | abolished | 2 | inhibited | – | – | – |
| CC/C(=C(\c1ccccc1)c1ccc(OCCN(C)C)cc1)c1ccccc1 [tamoxifen] | – | – | abolished | 2 | – | 49 | 42 | 22 |

From US9220740B2
